From patent US20240390351A1, “MYCOBACTERIUM ABSCESSUS GROWTH INHIBITOR AND MODEL” (priority 2021, published 2024) come the findings set out here.

Test [1] has as its system intracellular ATP synthesis of M. abscessus subsp. abscessus. Nature of the test: Whole-cell ATP measurement (BacTiter-Glo), intracellular ATP synthesis inhibition. The format is cell-based, Mycobacterium abscessus subsp. abscessus. Particulars: Mycobacteroides abscessus, CAMH medium, 24 h, read-out: inhibitory concentration (IC50) for intracellular ATP levels. Here is the method: Clear 96-well flat-bottom cell culture plates (Nunc) were filled with 100 μL of CAMH medium in each well. The compound was added to the first well in each row to create two times the desired highest final concentration. Subsequently, a […] twofold serial dilution was carried out starting from the first well in each row. Mab, which was grown to mid-exponential phase, was diluted to an optical density at 600 nm (OD600) of 0.1; 100 μL of the diluted culture was added to each well to create a final OD600 of 0.05 in all the wells. The plates were incubated at 37° C. on a standing incubator for 24 h. At the end of the incubation period, the samples were measured for their intrabacterial ATP content by employing the BacTiter-Glo microbial cell viability assay (Promega), which was carried out according to the manufacturer's instructions as described previously (Hotra, A. et al., Angew. Chem. Int. Ed. Engl. 2020, 59, 13295-13304). […] Luminescence was measured with Cytation 5 multi-mode reader after 10 min of incubation of the plate in the dark at room temperature. The background luminescence reading was subtracted from the luminescence readings of all the samples. The ATP amount is directly proportional to the relative luminescence units. […]
The similar IC50- and MIC50 values determined, indicate that ATP synthesis catalyzed by the F-ATP synthase is the major cause of cell growth inhibition.

For test [2], the system named is M. abscessus subsp. abscessus ATCC 19977. Kind of test: Growth inhibition dose-response assay, broth microdilution in CAMH medium. It is filed as cell-based, Mycobacterium abscessus subsp. abscessus. Particulars: Mycobacteroides abscessus, ATCC19977; M. abscessus subsp. abscessus ATCC 19977, CAMH medium; concentration that inhibits 50% of growth; read-out: minimum inhibitory concentration (MIC50), growth inhibition. On the procedure: The M. abscessus subsp. abscessus ATCC 19977 strain was used. The Mab strain was maintained in CAMH broth, which was prepared according to the manufacturer's instructions. The growth inhibition dose-response assay was carried out using the broth microdilution method as described previously (Moreira, W., Aziz, D. B. & Dick T., Front. Microbiol. 2016, 7, 199). The MIC50 reported represents the concentration that inhibits 50% of growth compared with the untreated culture.
On the technique in general: Broth dilution looks for growth in wells or tubes with falling amounts of substance.

Test [3] concerns the target T1, Mabε (M. abscessus F-ATP synthase subunit ε) (Mycobacteroides abscessus, UniProt B1MLW3).
T1 construct: made in house; host or cells: Escherichia coli C41 (DE3)
Kind of test: 1H-15N-HSQC NMR titration and R2 relaxation of Mabε with compound. The note with it: 1:5 molar ratio of Mabε and Ep1MabF1; residues V9, A10, R13, E14, G68-I72, V77, I79-A81. The format is binding, Mycobacterium abscessus. Here is the method:
All NMR experiments were carried out on a BrukerAvance 700-MHz spectrometer, which was equipped with a cryoprobe at 298 K.
To confirm that Mabε is Ep1MabF1's target, a ^1H-^15N-HSQC NMR titration experiment in the presence (1:5 molar ratio of Mabε and Ep1MabF1) and absence of the compound was performed. Significant changes in chemical shift were (CSP >0.15 ppm) detected for the backbone resonances of amino acids V9, A10, R13, E14, G68-172, V77 and 179-A81 (FIGS. 14C and 15). […] In addition, we measured R2 relaxation data in the presence of Ep1MabF1 and calculated the changes of R2 values between the compound-free and compound-bound protein.

In test [4] the target is T1, Mabε (M. abscessus F-ATP synthase subunit ε). Nature of the test: NMR titration of Mabε with MgATP. The format is binding, Mycobacterium abscessus. The note with it: molar ratio of Mabε to MgATP of 1:10. The text has this: In thermophilic Bacillus PS3, Bacillus subtilis and chloroplasts, the C terminus of E is described as a mobile regulatory element, altering its conformation in response to nucleotide conditions or the ion motive force (IMF). ATP binding in E of thermophilic Bacillus PS3 and Bacillus subtilis forces the C-terminal helices into a hairpin conformation, which extends in the absence of the nucleotide, leading to an inhibited ATP hydrolysis state. Here, we used the high-quality NMR spectra of Mabε and performed NMR titration experiments in the presence of MgATP (molar ratio of Mabε to MgATP of 1:10). […] ATP binding of the M. smegmatis subunit E was also not observed in the recent cryo-EM structure of the M. smegmatis F-ATP synthase (Guo, H. et al., Nature 2021, 589, 143-147), underlining that the mycobacterial E subunits are not regulated via nucleotide binding to this rotary subunit.

Molecules are shown by their SMILES. ≈ marks a conversion by molar mass, not a printed value.

T1 sequence (B1MLW3 2-121): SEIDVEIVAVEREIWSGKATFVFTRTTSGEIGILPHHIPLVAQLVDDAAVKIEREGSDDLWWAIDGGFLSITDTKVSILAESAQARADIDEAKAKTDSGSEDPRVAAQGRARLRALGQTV

In the case of `Cc1cccc(Cc2nc3ccccc3n2CCC(=O)NCc2ccccn2)c1` [Ep1MabF1, 3-(2-(3-methylbenzyl)-1H-benzo[d]imidazol-1-yl)-N-(pyridin-2-ylmethyl)propanamide], in test [1], the IC50 worked out at 600 ± 30 µM. Besides, the MIC50 in test [2] was 420 ± 14 µM (≈ 161 µg/mL). Besides, the “chemical shift perturbation (CSP) of Mabε backbone resonances” value in test [3] was greater than 0.15 ppm.
Take `Nc1ncnc2c1ncn2[C@@H]1O[C@H](COP(=O)(O)OP(=O)([O-])OP(=O)([O-])O)[C@@H](O)[C@H]1O.[Mg+2]` [MgATP]: in test [4], the “chemical shift change of Mabε in 15N HSQC after addition of nucleotide (binding)” value is listed as “no obvious chemical shift was observed”.
